This is an account of results in patent US8962837B2, “Nitrogen heterocycle derivatives, preparation thereof and application thereof in human therapeutics” (Pierre Fabre Medicament, priority 2010, dated 2015).

One test concerns the target Human SCD-1 (Homo sapiens (Human), UniProt O00767). As to the kind of experiment: Human SCD-1 enzyme activity using HepG2 cell microsomes (conversion of stearic acid to oleic acid). To be noted: 20 minutes at 37° C., relative to 0.1% DMSO vehicle, read-out: HSCD-1 (HEPG2) IC50. The format is biochemical. How it is done: Human SCD-1 enzyme activity using HepG2 cell microsomes after treating with inhibitory compounds (% inhibition):
Human hepatocarcinoma HepG2 cells (ATCC, HB-8065) are cultured to confluence and trypsinised. The cell pellet is taken up with 10 mM Tris (pH 7.4) sucrose (250 mM) DTT (1 mM) buffer and the cells are lysed by sonication. The microsomes are obtained after centrifugation at 10,000 g for 20 minutes at 4° C. followed by centrifugation of the supernatant at 100,000 g for 60 minutes at 4° C. The pellet is taken up with 10 mM Tris (pH 7.4) sucrose (250 mM) buffer at 4° C. and the microsomal proteins are assayed and stored at −196° C. (liquid nitrogen).
The enzyme reaction measures the conversion of stearic acid (C18:0 fatty acid) to oleic acid (C18:1 fatty acid) by SCD-1. The enzyme reaction is started by adding 125 μg of HepG2 cell microsomal fraction to tubes (total reaction volume of 500 μl) containing 62 μM of stearic acid (45 μM of stearic acid 17 μM of [^14C] stearic acid) in a 100 mM phosphate buffer (pH 7.16) with 7.2 mM of ATP, 0.54 mM of CoA, 6 mM of MgCl2, 0.8 mM of NADH and the inhibitory compound or the vehicle (0.1% DMSO). The tubes are incubated for 20 minutes at 37° C. and the enzyme reaction is stopped by adding KOH (12%) and saponification for 30 minutes at 80° C. After acidification (3N HCl), the fatty acids are extracted twice with ethyl ether, evaporated in nitrogen before being taken up with methanol/dichloromethane (3:1). The reaction product (C18:1) is separated from the reaction substrate (C18:0) by HPLC (Perkin Elmer, C18 reverse phase column) coupled with an online radioactivity detector (FlowOne). The enzyme activity is calculated in picomoles of stearic acid converted into oleic acid per minute and per mg of protein. For each inhibitory compound, an IC50 is determined in relation to the reference enzyme activity (0.1% DMSO vehicle). Sterculic acid is the reference inhibitory compound (Gomez F. E., Bauman D. E., Ntambi J. M., Fox B. G. Effects of sterculic acid on stearoyl-CoA desaturase in differentiating 3T3-L1 adipocytes. Biochem Biophys Res Commun. 300 316-326 (2003).

Another test deals with sebaceous glands. In words: Topical application of SCD-1 inhibitory compounds to NMRI mice: reduction in number and size of sebaceous glands. The format is in vivo. To be noted: Mus musculus, 120 h, twice daily, treatment time 5 days; for inhibition in vivo at 0.3 %: concentration 0.3%; for inhibition in vivo at 1 %: concentration 1%. How it is done:
Topical application of SCD-1 inhibitory compounds to NMRI mice: reduction in number and size of sebaceous glands.
Experimental protocol: Crl:NMRI male mice (24-26 g) are shaved (2×2 cm^2 minimum) 2-3 days before the first application of molecules under test. To prevent potential oral intake of the molecules, the animals are accommodated individually.
The molecules are solubilised in the ethanol/propylene glycol (30/70, v/v) vehicle are a maximum concentration of 1%. 50 μl of each preparation (molecule under test, or vehicle) are applied twice daily for 5 consecutive days on the 2 cm^2 shaved area, with the cone of a pipette with a number of to-and-fro movements. At least 6 hours after the final application, the mice are euthanised, the skin samples are taken and fixed immediately to produce paraffin sections; a histomorphometric analysis after Haematoxylin/Eosin staining is carried out.
For each animal, at least 3 sections approximately 10 mm in length are read blind by 3 people, and the efficacy of the molecules on sebaceous gland atrophy is assessed quantitatively (number) and qualitatively (relative score, size). The duration of action, the reversibility of the effect are verified in the same way by modifying the application sequences.

Another test relates to HCT-116 tumour cells. In words: Cytotoxic / anti-proliferation activity on human colon cancer cell line HCT-116 (ATP-lite). The format is cell-based. The conditions noted are these: 72 hours. How it is done:
Cytotoxic activities with respect to human colon cancer cell lines (HCT-116):
HCT-116 tumour cells are inoculated in a 96-well plate in RPMI 1640 medium to which 5% foetal calf serum is added (100 μl/well, respectively at 1.5 10^4 cells/ml). After 24 hours of incubation at 37° C. in an incubator at 5% CO2, 11 μl of medium containing the compound under test at a concentration 10 times greater than the final concentration are added. The plates are incubated for a further 72 hours. Cell survival is evaluated by measuring the luminescence after releasing ATP in the medium using the cell lysis, luciferase and luciferin solutions contained in the ATP-lite-M™ kit as recommended by the manufacturer (Packard, Rungis, France). Each experimental condition was replicated at least three times independently with one well reading in sextuplet per dose interval.

The mark [1] stands for this setting: HCT-116, HTC116 human tumour line, read-out: EC50 (anti-proliferation activity).
[2] abbreviates: Homo sapiens, HCT-116 tumour line cells, read-out: 50% inhibitory concentration (EC50), concentration inhibiting cell proliferation by 50%.

The structures appear in SMILES notation. pEC50, pIC50: −log10 of the molar value. Read-outs that look alike come from different tables or passages of the source.

Human SCD-1, sequence (O00767 whole entry): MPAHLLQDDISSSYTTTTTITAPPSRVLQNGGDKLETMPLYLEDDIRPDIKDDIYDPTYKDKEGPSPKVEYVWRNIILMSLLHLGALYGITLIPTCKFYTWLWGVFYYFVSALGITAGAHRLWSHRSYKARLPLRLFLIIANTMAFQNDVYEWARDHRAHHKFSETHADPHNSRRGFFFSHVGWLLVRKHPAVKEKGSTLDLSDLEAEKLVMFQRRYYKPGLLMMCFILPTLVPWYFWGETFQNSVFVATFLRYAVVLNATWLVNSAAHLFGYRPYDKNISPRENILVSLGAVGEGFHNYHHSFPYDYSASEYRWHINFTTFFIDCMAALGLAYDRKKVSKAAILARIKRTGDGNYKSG

For the molecule `Cn1cc(Cl)nc(N2CCC(Oc3ccccc3Cl)CC2)c1=O` [Example 6, 5-Chloro-3-[4-(2-chloro-phenoxy)-piperidin-1-yl]-1-methyl-1H-pyrazin-2-one], the pIC50 on Human SCD-1 was 6.00 to 7.00. In the test with sebaceous glands, this molecule yielded an inhibition in vivo at 0.3 % of 79%. Consider `Cn1cc(Cl)nc(N2CCC(Oc3ccccc3C(F)(F)F)CC2)c1=O` [Example 7, 5-Chloro-1-methyl-3-[4-(2-trifluoromethyl-phenoxy)-piperidin-1-yl]-1H-pyrazin-2-one], for which, at Human SCD-1, the pIC50 is 6.52 to 7.00. Besides, in the test on sebaceous glands, the inhibition in vivo at 0.3 % was determined as 75%. For `Cn1cc(Cl)nc(N2CCC(Oc3cc(C(F)(F)F)ccc3Cl)CC2)c1=O` [Example 8], in that order: 6.52 to 7.00 and 95%. Consider `Cc1ccccc1OC1CCN(c2nc(Cl)cn(C)c2=O)CC1` [Example 9, 5-Chloro-1-methyl-3-(4-o-tolyloxy-piperidin-1-yl)-1H-pyrazin-2-one], for which the pIC50 on Human SCD-1 is 6.00 to 7.00. Further, the inhibition in vivo at 0.3 % in the test with sebaceous glands came out at 43%. For `Cn1ccnc(N2CCC(Oc3ccccc3C(F)(F)F)CC2)c1=O` [Example 11, 1-Methyl-3-[4-(2-trifluoromethyl-phenoxy)-piperidin-1-yl]-1H-pyrazin-2-one], at Human SCD-1, the pIC50 was 7.00. In the test with sebaceous glands, the inhibition in vivo at 1 % came to 45%. As for `Cn1cc(Cl)nc(N2CCC(Oc3cc(F)ccc3Cl)CC2)c1=O` [Example 12, 5-Chloro-3-[4-(2-chloro-5-fluoro-phenoxy)-piperidin-1-yl]-1-methyl-1H-pyrazin-2-one], the pEC50 in the test on HCT-116 tumour cells (setting [1]) and in the test with HCT-116 tumour cells (setting [2]) was 7.22 throughout. In addition, the pIC50 at Human SCD-1 was 7.52 to 8.00. The molecule also returned an inhibition in vivo at 0.3 % in the test on sebaceous glands of 94%. As to `Clc1ccccc1OC1CCN(c2nccnn2)CC1` [Example 13, 3-[4-(2-Chloro-phenoxy)-piperidin-1-yl]-[1,2,4]triazine], the pIC50 at Human SCD-1 was 6.00 to 7.00. Still for that read-out and setting: next, `FC(F)(F)c1ccccc1OC1CCN(c2nccnn2)CC1` [Example 14, 3-[4-(2-Trifluoromethyl-phenoxy)-piperidin-1-yl]-[1,2,4]triazine]: 6.00 to 7.00. As to `FC(F)(F)c1ccc(Cl)c(OC2CCN(c3nccnn3)CC2)c1` [Example 17, 3-[4-(2-Chloro-5-trifluoromethyl-phenoxy)-piperidin-1-yl]-[1,2,4]triazine], the pEC50 with HCT-116 tumour cells (setting [1]) and in the test on HCT-116 tumour cells (setting [2]) was 6.64 in each case. Moreover, the pIC50 on Human SCD-1 is 7.00. The inhibition in vivo at 1 % with sebaceous glands worked out at 97%. In the case of `Fc1ccc(Cl)c(OC2CCN(c3nccnn3)CC2)c1` [Example 18, 3-[4-(2-Chloro-5-fluoro-phenoxy)-piperidin-1-yl]-[1,2,4]triazine], on Human SCD-1, the pIC50 was 7.52.

As for `Cc1nnc(N2CCC(Oc3cc(C(F)(F)F)ccc3Cl)CC2)nc1C` [Example 19, 3-[4-(2-Chloro-5-trifluoromethyl-phenoxy)-piperidin-1-yl]-5,6-dimethyl-[1,2,4]triazine], at Human SCD-1, the pIC50 is 6.00 to 7.00. With `Cc1cnnc(N2CCC(Oc3cc(F)ccc3Cl)CC2)n1` [Example 25, 3-[4-(2-Chloro-5-fluoro-phenoxy)-piperidin-1-yl]-5-methyl-[1,2,4]triazine], the pIC50 on Human SCD-1 is 7.00. As to `Cc1cnnc(N2CCC(Oc3cc(C(F)(F)F)ccc3Cl)CC2)n1` [Example 27, 3-[4-(2-Chloro-5-trifluoromethyl-phenoxy)-piperidin-1-yl]-5-methyl-[1,2,4]triazine], the pIC50 on Human SCD-1 is 6.52. Consider `Cc1cnnc(N2CCC(Oc3ccccc3Cl)CC2)n1` [Example 28, 3-[4-(2-Chloro-phenoxy)-piperidin-1-yl]-5-methyl-[1,2,4]triazine], for which the pIC50 on Human SCD-1 was 6.00 to 6.52. In the case of `Cc1cnc(N2CCC(Oc3cc(F)ccc3Cl)CC2)nn1` [Example 30, 3-[4-(2-Chloro-5-fluoro-phenoxy)-piperidin-1-yl]-6-methyl-[1,2,4]triazine], on Human SCD-1, the pIC50 is 7.00. Still for that read-out and setting: to `O=[N+]([O-])c1ccc(Cl)c(OC2CCN(c3nccnn3)CC2)c1` [Example 32, 3-[4-(2-Chloro-5-nitro-phenoxy)-piperidin-1-yl]-[1,2,4]triazine] belongs 7.00 to 7.52; to `Fc1cc(Br)c(OC2CCN(c3nccnn3)CC2)cc1F` [Example 33, 3-[4-(2-Bromo-4,5-difluoro-phenoxy)-piperidin-1-yl]-[1,2,4]triazine], 7.00 to 8.00. `O=[N+]([O-])c1ccccc1OC1CCN(c2nccnn2)CC1` [Example 35, 3-[4-(2-Nitro-phenoxy)-piperidin-1-yl]-[1,2,4]triazine]: the pIC50 at Human SCD-1 was 6.00 to 7.00. As to `FC(F)(F)c1ccccc1NC1CCN(c2nccnn2)CC1` [Example 36], the pIC50 on Human SCD-1 is 7.52. On the same count and under the same terms, to `CC1CN(c2nccnn2)CCC1Oc1cc(C(F)(F)F)ccc1Cl` (stereo not drawn) [Example 37, 3-[4-(2-Chloro-5-trifluoromethyl-phenoxy)-3-methyl-piperidin-1-yl]-[1,2,4]triazine] belongs 6.00 to 7.00; to `CC1CN(c2nccnn2)CCC1Oc1cc(Cl)ccc1Cl` (stereo not drawn) [Example 38, 3-[4-(2,5-Dichloro-phenoxy)-3-methyl-piperidin-1-yl]-[1,2,4]triazine], 6.00 to 6.52. Consider `Cn1nccc(N2CCC(Oc3cc(C(F)(F)F)ccc3Cl)CC2)c1=O` [Example 40, 4-[4-(2-Chloro-5-trifluoromethyl-phenoxy)-piperidin-1-yl]-2-methyl-2H-pyridazin-3-one], for which the pIC50 at Human SCD-1 was 6.52 to 7.00. For the same molecule, the inhibition in vivo at 0.1 % in the test with sebaceous glands (concentration 0.1%) was determined as 36%. As for `FC(F)(F)c1ccc(Cl)c(OC2CCN(c3nccnn3)C2)c1` (stereo not drawn) [Example 42, 3-[3-(2-Chloro-5-trifluoromethyl-phenoxy)-pyrrolidin-1-yl]-[1,2,4]triazine], on Human SCD-1, the pIC50 was 6.00 to 6.52. Turning to `CCCCCCCCC1=C(CCCCCCCC(=O)O)C1` [Sterculic acid, reference compound], the pIC50 at Human SCD-1 was 6.52.
